The values that follow come from patent US20230158036A1, “MEDICAMENT FOR THE TREATMENT OF PAIN” (Shionogi & Co., Ltd., priority 2020, published 2023).

Test [1] concerns acetic acid-induced urination disorder model. As to the kind of experiment: Drug efficacy in acetic acid-induced urination disorder model (Test Example 11). The class given is in vivo. As to conditions: rat, 3 mg/kg oral. As for the experimental part: (Test Example 11) Assessment of Drug Efficacy in Acetic Acid-Induced Urination Disorder Model
Preparation of acetic acid-induced urination disorder model
A catheter was placed in a rat bladder under isoflurane anesthesia. After 2 days from the surgery for placing the catheter, 0.3% acetic acid was administered at 4 mL/hr over 30 minutes to induce cystitis. In this model, the amount of urine per urinating action and the voiding interval decreased.
On the day after acetic acid was administered, the amount of urine per urinating action and the voiding interval before drug administration were evaluated. The compound represented by Formula (I) was homogenized with mortar and pestle and suspended in 0.5% Methyl Cellulose to prepare a suspension, and it was orally administered at 0.1 mg/kg, 0.75 mg/kg, or 3 mg/kg to the rats using a syringe attached with a sonde. The amount of urine per urinating action and the voiding interval during a period from 30 minutes to 150 minutes after administration were measured. The value before administration for each individual was assumed to be 100%, and the change rate after administration was calculated.
Rate of change in amount of voided urine per urinating action=(amount of urine per urinating action after drug treatment of cystitis rat[…]amount of voided urine per urinating action before drug treatment of cystitis rat)×100
Rate of change in voiding interval=(voiding interval after drug treatment of cystitis rat[…]voiding interval before drug treatment of cystitis rat)×100

Test [2] concerns mouse bone cancer pain model. As to the kind of experiment: Drug efficacy in mouse bone cancer pain model (NCTC2472 cells in femur, von Frey; Test Example 10). The class given is in vivo. The settings on record: 10 mg/kg oral, two weeks after operation. The source says:
(Test Example 10) Assessment of Drug Efficacy in Mouse Bone Cancer Pain Model
Preparation of Mouse Bone Cancer Pain Model
The skin was incised under isoflurane anesthesia, the muscles were torn to expose the left femur, a hole was made in the bone marrow cavity using a 26 G needle, and tumor cells (NCTC2472 cells derived from C3H/HeN mice) were transplanted using a 30 G needle. The hole made in the femoral bone marrow cavity was closed with dental cement, and then the skin was sutured. Mice in sham-operated groups were prepared by administering HBSS instead of tumor cells.
Two weeks after the operation, the effect on tactile allodynia was assessed using von Frey filaments. Two weeks after the operation, for habituation, the mice were placed into a plastic cage on a wire mesh bottom. […] The pain threshold was evaluated for the operated hind limb and defined as a pre-administration pain threshold, and the compound represented by the formula (I) was administered to the animal at 10 mg/kg. […] Pain thresholds were measured for the operated hind limbs after the administration of the test substance, and these were used as post-administration pain thresholds. A percent reversal value for each rat was calculated using the following formula. […]

Test [3] deals with rat knee osteoarthritis model. As to the kind of experiment: Drug efficacy in knee osteoarthritis pain model (MIA, hind limb load distribution; Test Example 7). The class given is in vivo. As to conditions: 10 mg/kg oral, 3 hours after administration. The procedure: (Test Example 7) Assessment of Drug Efficacy in Knee Osteoarthritis Pain Model
Preparation of Rat Knee Osteoarthritis Model
Under isoflurane anesthesia, a knee joint on one side was shaved, and a monoiode sodium acetate (MIA) solution (saline solution, up to 5 mg/50 μL/rat) was intraarticularly administered.
Two weeks after the MIA administration, the analgesic effect of the compound represented by Formula (I) was evaluated. This test was based on a system for measuring a load distribution applied to hind limbs of a rat, and a ratio of load differences between left and right hind limbs was used as a pain threshold. On the day of the test, the pain threshold before the administration of the compound represented by Formula (I) was measured, and then after the administration of the test substance, the pain threshold was measured. […] Pain thresholds were measured for the hind limbs at 3 hours after the administration of the test substance, and these were used as post-administration pain thresholds. The load difference was measured up to three times, and the average value thereof was used as the pain threshold.
A percent reversal value for each rat was calculated using the following formula. […]

In test [4] the test system is rat inflammatory pain model. As to the kind of experiment: Drug efficacy in inflammatory pain model (FCA, Randall-Selitto; Test Example 8). The test is classed as in vivo. The settings on record: 10 mg/kg oral, 1 hour after administration. As for the experimental part: (Test Example 8) Assessment of Drug Efficacy in Inflammatory Pain Model
Preparation of Rat Inflammatory Pain Model
Under isoflurane anesthesia, FCA (12.5-100 μg) was subcutaneously injected into the hind limb of a rat to prepare an inflammatory pain model.
(§1) Two weeks after the administration of FCA, the analgesic effect of the compound represented by Formula (I) was evaluated by the Randall-Selitto method. […] On the day of the test, the pain threshold before the administration of the compound represented by Formula (I) was measured, and then after the administration of the test substance, the pain threshold was measured. The compound represented by Formula (I) was homogenized with mortar and pestle and suspended in 0.5% Methyl Cellulose to prepare a suspension, and it was orally administered at 10 mg/kg to the animals using a syringe attached with a sonde. Pain thresholds were measured for the hind limbs at 1 hour after the administration of the test substance, and these were used as post-administration pain thresholds. A percent reversal value for each rat was calculated using the following formula. The analgesic effects of the compound were compared.
% Reversal value=(post-administration pain threshold−pre-administration pain threshold)/(pain threshold of hind limb on FCA-non-administered side−pre-administration pain threshold)×100

Test [5] concerns the target T1, rat P2X3 receptor (Rattus norvegicus, UniProt P49654).
T1 construct: expressed in transfected cells; host or cells: C6BU-1 cells (stably expressing line)
T1 sequence (P49654 1-397): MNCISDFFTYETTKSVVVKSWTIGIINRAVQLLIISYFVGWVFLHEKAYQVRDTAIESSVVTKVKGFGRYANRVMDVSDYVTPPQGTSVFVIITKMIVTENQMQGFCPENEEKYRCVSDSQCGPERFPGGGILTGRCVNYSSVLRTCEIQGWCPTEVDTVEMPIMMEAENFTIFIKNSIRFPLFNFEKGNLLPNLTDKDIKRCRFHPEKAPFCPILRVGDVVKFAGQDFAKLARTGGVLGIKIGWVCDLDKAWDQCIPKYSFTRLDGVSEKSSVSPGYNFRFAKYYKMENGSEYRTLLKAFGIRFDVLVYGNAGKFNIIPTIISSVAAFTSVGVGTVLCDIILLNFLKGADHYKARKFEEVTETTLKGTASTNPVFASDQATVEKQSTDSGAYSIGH
Nature of the test: Evaluation of rat P2X3 receptor inhibitory activity in the presence of rat serum albumin (Test Example 4). The test is classed as cell-based. The source says: (Test Example 4) Evaluation of Rat P2X3 Receptor Inhibitory Activity in the Presence of Rat Serum Albumin (RSA)

For test [6], the system named is rat diabetic neuropathic pain model. Nature of the test: Drug efficacy in diabetic neuropathic pain model (STZ, Randall-Selitto; Test Example 6). As to conditions: 10 mg/kg oral, 3 hours after administration. The class given is in vivo. As for the experimental part:
(Test Example 6) Assessment of Drug Efficacy in Diabetic Neuropathic Pain Model
Preparation of Rat Diabetic Neuropathic Pain Model
To overnight fasted rats, […] of streptozotocin (STZ) was intravenously administered to prepare a diabetes model. As a control, rats to which saline was administered were also prepared.
as §1, with “STZ,” for “FCA,”, “3 hours” for “1 hour”
% Reversal value=(post-administration pain threshold−pre-administration pain threshold)/(pain threshold of saline-administered rat−pre-administration pain threshold)×100

Test [7] deals with partial sciatic nerve ligation model in rats. As to the kind of experiment: Drug efficacy in Seltzer model (partial sciatic nerve ligation, von Frey tactile allodynia; Test Example 5). The test is classed as in vivo. As to conditions: rat, 10 mg/kg oral, 3 hours after administration, two weeks after operation. The source says: (Test Example 5) Assessment of Drug Efficacy in Seltzer Model
Partial Sciatic Nerve Ligation Model in Rats
Each rat was anesthetized with isoflurane and the hair of the left thigh was shaved. An incision was made in the skin just below the hip bone. The muscle was bluntly dissected to expose the sciatic nerve. ⅓ to ½ of the sciatic nerve was strongly ligated with a thread, and the muscle and the skin were sutured. This is referred to as a nerve ligated side. The right thigh underwent an identical procedure with the left hind limb except for the ligation of the sciatic nerve. This is referred to as a sham operated side.
Two weeks after the operation, the effect on tactile allodynia was assessed using von Frey filaments. Two weeks after the operation, for habituation, the rats were placed into a plastic cage on a wire mesh bottom. […] Pain thresholds were measured for the left and right hind limbs and these were used as pre-treatment pain thresholds. […] Pain thresholds were measured for the right and left hind limbs at 3 hours after the drug administration, and these were used as post-treatment pain thresholds. A percent reversal value for each rat was calculated using the following formula. […]

The test system of test [8] is mouse bladder pain model. As to the kind of experiment: Drug efficacy in cystitis pain model (cyclophosphamide, automatic von Frey; Test Example 9). The class given is in vivo. The settings on record: 3 mg/kg oral, 1 hour after administration. As for the experimental part: (Test Example 9) Assessment of Drug Efficacy in Cystitis Pain Model
Preparation of Mouse Bladder Pain Model
Cyclophosphamide was dissolved in physiological saline or the like, and the solution was intraperitoneally administered to mice. Cyclophosphamide was administered at 150 mg/kg once daily consecutively for four days. As a control, mice to which saline was administered were also prepared.
The analgesic effect of the compound represented by Formula (I) was evaluated the day after the final administration of cyclophosphamide. In this test, mechanical stimulation by an automatic von Frey device was applied to the periphery of the lower abdomen while holding the mouse, and with respect to the resulting escape behavior defined as pain-like behavior, the pain threshold was determined. On the day of the test, the pain threshold before the administration (pre-administration pain threshold) of the compound represented by Formula (I) was measured, and then after the administration of the test substance, the pain threshold was measured. […] Pain thresholds were measured at 1 hour after the administration of the test substance, and these were used as post-administration pain thresholds. A percent reversal value for each rat was calculated using the following formula. […]

Test [9] deals with knee osteoarthritis patients. The settings on record: 300 mg twice daily oral, after 4 weeks; NPRS before administration 6.8; cited from earlier work.
For test [10], the system named is patients of interstitial cystitis/bladder pain syndrome. The settings on record: twice daily oral, gradually increased from 50 mg to 300 mg, after 4 weeks; NPRS before administration 6.2; cited from earlier work.
The mark [11] stands for this setting: 30 to 150 minutes after administration, value before administration = 100%.

SMILES strings stand for the structures.

For orientation: IC50 means the concentration at which inhibition is half-maximal. `C[C@@H](Cn1c(=O)[nH]/c(=N\c2ccc(Oc3ccccn3)cc2)n(Cc2ccc(Cl)cc2)c1=O)C(=O)O` [compound represented by Formula (I), (2S)-3-(3-[(4-chlorophenyl)methyl]-2,6-dioxo-4-([4-(pyridin-2-yloxy)phenyl]amino)-3,6-dihydro-1,3,5-triazin-1(2H)-yl)-2-methyl-propanoic acid]: the “Rate of change in amount of voided urine per urinating action” value in test [1] (setting [11]) is given as 208.4%. Also, in [1] (setting [11]), the “Rate of change in voiding interval” value is given as 219.0%. In addition, the “Effect on voiding interval and amount of voided urine (FIGS. 1 and 2), in words” value in [1] (p<0.05 vs vehicle (Dunnett)) is “significant improving effect”. For the same compound, the “Percent reversal value (pain threshold, von Frey)” value stood at 55% in [2] and 65% in test [7]. Also, in test [3], the “Percent reversal value (load difference between left and right hind limbs)” value worked out at 51%. Further, the “Percent reversal value (pain threshold, Randall-Selitto)” value was determined as 58% in test [4] and 55% in [6]. Also, the IC50 in [5] was 10 nM. In [8], the “Percent reversal value (lower abdomen pain threshold, automatic von Frey)” value was 46%.

Consider `COc1cc(C(C)C)c(Oc2cnc(N)nc2N)cc1S(N)(=O)=O` [Gefapixant], for which the “Numeric pain rating scale (NPRS) after administration” value in test [9] is 4.9; in test [10] it was 3.3.
